In patent publication US12509424B2, “Compound and composition as PDGF receptor kinase inhibitor” (NIPPON SHINYAKU CO., LTD., priority 2019, dated 2025) one finds IC50 data, which are given here for 21 compounds.

Structures are written as SMILES. Read-outs that look alike come from different tables or passages of the source.

For one assay, the target named is PDGFR-β (Homo sapiens (Human), UniProt P09619). Description: PDGFR-β tyrosine kinase inhibitory action (HTRF KinEASE-TK). The class given is biochemical. The note with it: PDGFR-β enzyme 1 ng/μL, 30° C. for 30 minutes; read-out: PDGF-β IC50. The essentials: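 Recombinant PDGFR-β at 1 ng/μL final with TK substrate-3-biotin in a substrate solution containing 0.6 μM ATP; buffer 50 mM HEPES pH 7.0, 5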
PDGFR-β, sequence (P09619 33-1106): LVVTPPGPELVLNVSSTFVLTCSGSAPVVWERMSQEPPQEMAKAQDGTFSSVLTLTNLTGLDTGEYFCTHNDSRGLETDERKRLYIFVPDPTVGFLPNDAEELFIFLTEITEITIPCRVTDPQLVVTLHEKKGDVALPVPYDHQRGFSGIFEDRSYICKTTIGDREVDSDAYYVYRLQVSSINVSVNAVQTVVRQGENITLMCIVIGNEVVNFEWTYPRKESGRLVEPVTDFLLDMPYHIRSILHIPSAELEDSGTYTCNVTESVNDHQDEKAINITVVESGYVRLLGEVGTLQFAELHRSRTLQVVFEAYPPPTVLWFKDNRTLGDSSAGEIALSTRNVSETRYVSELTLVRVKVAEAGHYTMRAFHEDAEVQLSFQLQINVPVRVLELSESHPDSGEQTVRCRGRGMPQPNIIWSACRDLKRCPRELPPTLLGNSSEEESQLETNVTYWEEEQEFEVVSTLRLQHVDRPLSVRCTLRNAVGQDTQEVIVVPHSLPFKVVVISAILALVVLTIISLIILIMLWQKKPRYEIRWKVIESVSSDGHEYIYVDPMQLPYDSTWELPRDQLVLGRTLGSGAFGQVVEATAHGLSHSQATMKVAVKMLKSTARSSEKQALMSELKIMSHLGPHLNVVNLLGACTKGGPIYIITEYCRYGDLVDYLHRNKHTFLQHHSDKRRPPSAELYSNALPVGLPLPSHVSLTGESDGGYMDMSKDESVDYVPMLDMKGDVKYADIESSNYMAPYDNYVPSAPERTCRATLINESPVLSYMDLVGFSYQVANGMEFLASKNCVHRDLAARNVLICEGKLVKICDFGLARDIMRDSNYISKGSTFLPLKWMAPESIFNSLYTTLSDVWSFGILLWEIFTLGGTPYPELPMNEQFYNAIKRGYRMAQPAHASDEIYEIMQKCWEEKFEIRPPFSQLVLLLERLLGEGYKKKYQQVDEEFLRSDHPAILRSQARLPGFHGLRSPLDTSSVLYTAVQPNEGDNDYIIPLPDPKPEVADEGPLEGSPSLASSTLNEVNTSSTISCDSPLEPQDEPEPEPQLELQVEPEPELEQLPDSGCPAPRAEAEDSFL
In general terms: TR-FRET usually uses a lanthanide donor and a delayed reading to cut background.

In assay [1] the target is TEL-PDGFRβ fusion gene transfected cells (Ba/F3). Description: Suppression of proliferation of TEL-PDGFRβ fusion gene transfected Ba/F3 cells. Type of assay: cell-based, human. The note with it: TEL-PDGFRβ expressing Ba/F3 cells, 72 hours, final concentration 0.1 to 10,000 nM; read-out: PDGFR β/BaF3 proliferation inhibition (IC50). The source says:
2. Preparation of Test Substance
4. Analysis of Measurement Results

The subject of assay [2] is pulmonary arterial smooth muscle cells. The assay is described as follows: Suppression of proliferation of pulmonary arterial smooth muscle cells (PDGF-BB stimulation, BrdU). Type of assay: cell-based. The settings on record: PASMC, read-out: Human normal PASMC proliferation suppression (PDGF stimulation_IC50). The essentials:
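Healthy human pulmonary arterial smooth muscle cells, serum-starved a day in 0.1% FBS medium, were treated with compound at final 3 to 10,000 nM plus human PDGF-BB (final 10 ng/mL) and BrdU. After 1 day of culture, BrdU uptake was measured with an anti-BrdU antibody.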

The target in assay [3] is TEL-KIT fusion gene transfected cells (Ba/F3). Description: Suppression of proliferation of TEL-KIT fusion gene transfected Ba/F3 cells.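 Further: viable cells quantified via formazan from tetrazolium reduction, inhibition scaled with 0.1% DMSO control as 0% and medium-only blank as 100%, IC50 from two-parameter logistic fit.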 The note with it: read-out: KIT/BaF3 proliferation inhibition (IC50); TEL-KIT expressing Ba/F3 cells, 72 hours, final concentration 0.1 to 10,000 nM.
TEL-KIT fusion gene transfected cells (Ba/F3), sequence (P10721 26-976 limits assumed, change not shown): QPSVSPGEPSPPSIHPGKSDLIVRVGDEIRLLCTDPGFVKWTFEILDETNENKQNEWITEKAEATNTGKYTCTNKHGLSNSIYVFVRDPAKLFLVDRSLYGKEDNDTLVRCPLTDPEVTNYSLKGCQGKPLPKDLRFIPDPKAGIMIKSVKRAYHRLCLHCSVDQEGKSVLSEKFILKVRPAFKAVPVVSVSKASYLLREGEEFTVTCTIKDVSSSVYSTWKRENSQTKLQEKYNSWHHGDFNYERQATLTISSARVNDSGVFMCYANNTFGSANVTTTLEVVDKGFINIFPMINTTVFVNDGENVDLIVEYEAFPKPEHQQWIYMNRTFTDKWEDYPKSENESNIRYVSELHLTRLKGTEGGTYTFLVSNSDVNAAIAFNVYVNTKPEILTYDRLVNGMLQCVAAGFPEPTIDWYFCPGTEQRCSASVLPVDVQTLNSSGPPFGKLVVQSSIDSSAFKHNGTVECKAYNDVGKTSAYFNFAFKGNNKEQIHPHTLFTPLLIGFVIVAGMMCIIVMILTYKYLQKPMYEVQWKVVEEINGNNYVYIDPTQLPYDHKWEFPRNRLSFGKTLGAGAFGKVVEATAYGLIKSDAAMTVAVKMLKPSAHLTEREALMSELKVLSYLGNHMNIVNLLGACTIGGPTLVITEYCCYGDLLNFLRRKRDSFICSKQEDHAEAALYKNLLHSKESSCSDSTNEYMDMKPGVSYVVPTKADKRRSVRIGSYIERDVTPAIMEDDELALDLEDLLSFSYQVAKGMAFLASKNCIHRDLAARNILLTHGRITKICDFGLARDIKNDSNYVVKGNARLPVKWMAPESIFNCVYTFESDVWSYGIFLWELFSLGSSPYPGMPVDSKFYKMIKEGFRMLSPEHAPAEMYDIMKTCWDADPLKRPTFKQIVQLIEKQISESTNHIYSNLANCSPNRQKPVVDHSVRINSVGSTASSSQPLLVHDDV
Where [4] appears, read: 24 h, healthy human derived pulmonary arterial smooth muscle cells, human PDGF-BB 10 ng/mL stimulation, BrdU uptake after 1 day, test substance final concentration 3 to 10,000 nM.
Setting [5] is: human PDGF-BB 10 ng/mL, BrdU uptake, final concentration 3 to 10,000 nM.

TEL-PDGFRβ fusion gene transfected cells (Ba/F3), sequence (P09619 33-1106 limits assumed, change not shown): as the sequence (P09619 33-1106) above

As for `Cc1ccc(C(=O)N[C@H]2CCCC[C@@H]2O)cc1NCc1cncc(-c2cccs2)c1` [Example 102, N-[(1S,2S)-2-hydroxycyclohexyl]-4-methyl-3-({[5-(thiophen-2-yl)pyridin-3-yl]methyl}amino)benzamide], the IC50 at PDGFR-β was 23 nM; in assay [1] it was 2 nM; in assay [2] (setting [4]), 30 nM; in assay [3] it was 620 nM.
On to `Cc1ccc(C(=O)N[C@H]2CCCC[C@@H]2O)cc1NC(=O)c1cncc(-c2ccccc2Cl)c1` [Example 13, 5-(2-chlorophenyl)-N-(5-{[(1S,2S)-2-hydroxycyclohexyl]carbamoyl}-2-methylphenyl)pyridine-3-carboxamide], for which the IC50 on PDGFR-β came to 140 nM; in assay [1], 17 nM; in assay [2] (setting [5]), 100 nM; in assay [3], 790 nM.
As to `Cc1ccc(C(=O)N[C@H]2CCCC[C@@H]2O)cc1N[C@@H](C)c1cncc(-c2ccccn2)c1` [Example 89, 3-{[(1S)-1-([2,3′-bipyridin]-5′-yl)ethyl]amino}-N-[(1S,2S)-2-hydroxycyclohexyl]-4-methylbenzamide], the IC50 on PDGFR-β was found to be 78 nM; in assay [1] it was 20 nM; in assay [2] (setting [4]) it was 190 nM; in assay [3], 610 nM.
On to `COc1ccc(-c2cncc(C(=O)Nc3cc(C(=O)N[C@H]4CCCC[C@@H]4O)ccc3C)c2)cc1` [Example 18, N-(5-{[(1S,2S)-2-hydroxycyclohexyl]carbamoyl}-2-methylphenyl)-5-(4-methoxyphenyl)pyridine-3-carboxamide], for which the IC50 turned out to be 39 nM on PDGFR-β, 20 nM in assay [1], 47 nM in assay [2] (setting [5]) and 530 nM in assay [3].
For `Cc1ccc(C(=O)N[C@H]2CCCC[C@@H]2O)cc1C#Cc1ccc(N)nc1` [Example 65, 3-[(6-aminopyridin-3-yl)ethynyl]-N-[(1S,2S)-2-hydroxycyclohexyl]-4-methylbenzamide], the IC50 on PDGFR-β worked out at 94 nM; in assay [1], 14 nM; in assay [2] (setting [4]), 60 nM; in assay [3], 270 nM.
In the case of `Cc1ccc(C(=O)N[C@H]2CCCC[C@@H]2O)cc1NC(=O)c1cncc(OC2CC(F)(F)C2)c1` [Example 47, 5-[(3,3-difluorocyclobutyl)oxy]-N-(5-{[(1S,2S)-2-hydroxycyclohexyl]carbamoyl}-2-methylphenyl)pyridine-3-carboxamide], the IC50 at PDGFR-β came out at 390 nM; in assay [1], 75 nM; in assay [2] (setting [4]), 350 nM; in assay [3], 7000 nM.
Consider `Cc1ccc(C(=O)N[C@H]2CCCC[C@@H]2O)cc1NC(=O)c1cncc(-c2cccc(C(F)(F)F)c2)c1` [Example 22, N-(5-{[(1S,2S)-2-hydroxycyclohexyl]carbamoyl}-2-methylphenyl)-5-[3-(trifluoromethyl)phenyl]pyridine-3-carboxamide], for which the IC50 at PDGFR-β was 14 nM; in assay [1] it was 59 nM; in assay [2] (setting [5]) it was 100 nM; in assay [3], 900 nM.
Consider `Cc1ccc(C(=O)N[C@H]2CCCC[C@@H]2O)cc1NC(=O)c1cncc(/C=C/C2CC2)c1` [Example 15, 5-[(E)-2-cyclopropylethenyl]-N-(5-{[(1S,2S)-2-hydroxycyclohexyl]carbamoyl}-2-methylphenyl)pyridine-3-carboxamide], for which the IC50 worked out at 11 nM on PDGFR-β, 3.9 nM in assay [1], 18 nM in assay [2] (setting [5]) and 330 nM in assay [3].
With `Cc1ccc(C(=O)N[C@@H](CO)[C@@H](O)c2ccccc2)cc1Nc1ccnc(-c2cncc3ccccc23)n1` [Example 80, N-[(1S,2S)-1,3-dihydroxy-1-phenylpropan-2-yl]-3-{[2-(isoquinolin-4-yl)pyrimidin-4-yl]amino}-4-methylbenzamide], the IC50 on PDGFR-β was 120 nM; in assay [1], 80 nM; in assay [2] (setting [4]), 280 nM; in assay [3], > 10000 nM.
In the case of `Cc1ccc(C(=O)N[C@H]2CCCC[C@@H]2O)cc1NC(=O)c1cncc(-c2cccc(F)c2)c1` [Example 20, 5-(3-fluorophenyl)-N-(5-{[(1S,2S)-2-hydroxycyclohexyl]carbamoyl}-2-methylphenyl)pyridine-3-carboxamide], the IC50 at PDGFR-β turned out to be 13 nM; in assay [1], 24 nM; in assay [2] (setting [5]), 77 nM; in assay [3] it was 900 nM.
For the compound `Cc1ccc(C(=O)N[C@@H](CO)[C@@H](O)c2ccccc2)cc1CNc1cncc(Br)c1` [Example 152, 3-{[(5-bromopyridin-3-yl)amino]methyl}-N-[(1S,2S)-1,3-dihydroxy-1-phenylpropan-2-yl]-4-methylbenzamide], the IC50 on PDGFR-β was 50 nM; in assay [1] it was 100 nM; in assay [2] (setting [4]) it was 82 nM; in assay [3] it was > 10000 nM.
As to `Cc1ccc(C(=O)N[C@H]2CCCC[C@@H]2O)cc1N[C@@H](C)c1cncc(-c2ncccn2)c1` [Example 88, N-[(1S,2S)-2-hydroxycyclohexyl]-4-methyl-3-({(1S)-1-[5-(pyrimidin-2-yl)pyridin-3-yl]ethyl}amino)benzamide], the IC50 on PDGFR-β came to 230 nM; in assay [1] it was 43 nM; in assay [2] (setting [4]) it was 210 nM; in assay [3], 6000 nM.
For the compound `Cc1ccc(C(=O)N[C@@H](CO)[C@@H](O)c2ccccc2)cc1CNc1cncc(-c2ccccn2)c1` [Example 155, 3-{[([2,3′-bipyridin]-5′-yl)amino]methyl}-N-[(1S,2S)-1,3-dihydroxy-1-phenylpropan-2-yl]-4-methylbenzamide], the IC50 was 36 nM on PDGFR-β, 69 nM in assay [1], 160 nM in assay [2] (setting [4]) and 10000 nM in assay [3].
The corresponding values for `Cc1ccc(C(=O)N[C@H]2CCCC[C@@H]2O)cc1CNc1cncc(-c2cccnc2)c1` [Example 146, 3-{[([3,3′-bipyridin]-5-yl)amino]methyl}-N-[(1S,2S)-2-hydroxycyclohexyl]-4-methylbenzamide] are 210 nM, 22 nM, 44 nM and 730 nM.
In the case of `Cc1ccc(C(=O)N[C@H]2CCCC[C@@H]2O)cc1NC(=O)c1cncc(-c2cc(F)cc(F)c2)c1` [Example 32, 5-(3,5-difluorophenyl)-N-(5-{[(1S,2S)-2-hydroxycyclohexyl]carbamoyl}-2-methylphenyl)pyridine-3-carboxamide], the IC50 on PDGFR-β came out at 47 nM; in assay [1], 17 nM; in assay [2] (setting [4]), 190 nM; in assay [3], 920 nM.
For the compound `O=C(N[C@H]1CCCC[C@@H]1O)c1ccc(Cl)c(C#Cc2cncc(-c3ncccn3)c2)c1` [Example 64, 4-chloro-N-[(1S,2S)-2-hydroxycyclohexyl]-3-{[5-(pyrimidin-2-yl)pyridin-3-yl]ethynyl}benzamide], the IC50 came out at 260 nM at PDGFR-β, 5.9 nM in assay [1], 92 nM in assay [2] (setting [4]) and 230 nM in assay [3].
On to `Cc1ccc(C(=O)N[C@H]2CCCC[C@@H]2O)cc1NCc1cncc(-c2ccsc2)c1` [Example 103, N-[(1S,2S)-2-hydroxycyclohexyl]-4-methyl-3-({[5-(thiophen-3-yl)pyridin-3-yl]methyl}amino)benzamide], for which the IC50 at PDGFR-β was 50 nM; in assay [1] it was 4.1 nM; in assay [2] (setting [4]), 40 nM; in assay [3], 2500 nM.
For `Cc1ccc(C(=O)N[C@H]2CCCC[C@@H]2O)cc1NC(=O)c1cncc(-c2c(F)cccc2F)c1` [Example 37, 5-(2,6-difluorophenyl)-N-(5-{[(1S,2S)-2-hydroxycyclohexyl]carbamoyl}-2-methylphenyl)pyridine-3-carboxamide], in that order: 33 nM, 5.1 nM, 46 nM and 470 nM.
As for `Cc1ccc(C(=O)N[C@H]2CCCC[C@@H]2O)cc1NCc1cnc2ccccc2c1` [Example 96, N-[(1S,2S)-2-hydroxycyclohexyl]-4-methyl-3-{[(quinolin-3-yl)methyl]amino}benzamide], the IC50 on PDGFR-β was 200 nM; in assay [1] it was 12 nM; in assay [2] (setting [4]) it was 72 nM; in assay [3], 310 nM.
Consider `Cc1ccc(C(=O)N[C@H]2CCCC[C@@H]2O)cc1NC(=O)c1cncc(NCC2CC2)c1` [Example 16, 5-[(cyclopropylmethyl)amino]-N-(5-{[(1S,2S)-2-hydroxycyclohexyl]carbamoyl}-2-methylphenyl)pyridine-3-carboxamide], for which the IC50 amounted to 22 nM at PDGFR-β, 130 nM in assay [1], 81 nM in assay [2] (setting [5]) and 1300 nM in assay [3].
In the case of `Cc1ccc(C(=O)N[C@H]2CCCC[C@@H]2O)cc1C(C)Nc1cncc(-c2ccccc2)n1` (stereo partly drawn) [Example 164, N-[(1S,2S)-2-hydroxycyclohexyl]-4-methyl-3-{1-[(6-phenylpyrazin-2-yl)amino]ethyl}benzamide], the IC50 at PDGFR-β was found to be 110 nM; in assay [1], 180 nM; in assay [2] (setting [4]), 110 nM; in assay [3], 1400 nM.
